Assay results: publication PMC9512014 (Journal of Medicinal Chemistry, 2022)
pIC50: −log10 of the molar value.

What was measured:
HDAC4 [1] = biological target: T1, HDAC4 (Homo sapiens, UniProt P56524); assay: HDAC4 degradation by western blot in Jurkat E6-1 cells; assay type: cell-based; conditions: Jurkat E6-1, 24 h; for hook effect: immunoblot, at 10 μM
Target sequence in this assay (P56524 whole entry): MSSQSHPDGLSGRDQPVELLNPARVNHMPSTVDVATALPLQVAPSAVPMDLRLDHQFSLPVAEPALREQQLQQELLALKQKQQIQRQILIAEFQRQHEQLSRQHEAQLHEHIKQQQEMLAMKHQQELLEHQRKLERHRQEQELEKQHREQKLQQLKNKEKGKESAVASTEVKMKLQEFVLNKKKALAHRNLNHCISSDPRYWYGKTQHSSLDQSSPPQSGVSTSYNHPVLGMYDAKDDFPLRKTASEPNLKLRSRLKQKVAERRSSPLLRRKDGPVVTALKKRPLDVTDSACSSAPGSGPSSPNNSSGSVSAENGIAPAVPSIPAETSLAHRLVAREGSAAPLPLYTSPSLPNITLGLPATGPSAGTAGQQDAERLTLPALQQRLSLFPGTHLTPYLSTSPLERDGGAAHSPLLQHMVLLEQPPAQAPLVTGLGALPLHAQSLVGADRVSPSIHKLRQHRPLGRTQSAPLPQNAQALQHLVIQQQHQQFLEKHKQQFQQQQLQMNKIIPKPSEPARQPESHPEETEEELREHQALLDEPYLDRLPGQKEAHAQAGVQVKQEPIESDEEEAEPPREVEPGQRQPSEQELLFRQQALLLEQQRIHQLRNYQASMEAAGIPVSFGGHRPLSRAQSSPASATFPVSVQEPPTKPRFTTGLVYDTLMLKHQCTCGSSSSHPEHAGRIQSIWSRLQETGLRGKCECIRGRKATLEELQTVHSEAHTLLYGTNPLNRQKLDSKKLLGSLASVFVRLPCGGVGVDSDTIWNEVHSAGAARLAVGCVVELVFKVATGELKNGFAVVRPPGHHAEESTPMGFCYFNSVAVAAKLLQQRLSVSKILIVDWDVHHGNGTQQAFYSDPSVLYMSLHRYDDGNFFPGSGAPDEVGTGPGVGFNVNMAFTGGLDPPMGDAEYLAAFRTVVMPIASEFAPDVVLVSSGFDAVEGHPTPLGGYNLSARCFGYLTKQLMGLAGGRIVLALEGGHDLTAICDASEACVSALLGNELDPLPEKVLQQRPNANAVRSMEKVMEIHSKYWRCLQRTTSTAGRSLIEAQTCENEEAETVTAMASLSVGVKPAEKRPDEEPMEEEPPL

class I HDAC = conditions: read-out: HDAC cellular IC50 class I; Jurkat E6.1, treated for 24 h; substrate Boc-Lys(Ac)AMC
HDAC1 = HDAC1 (Homo sapiens, UniProt Q13547); assay: Multiplexed selectivity western blot in Jurkat cells, HDAC1; assay type: cell-based; conditions: Jurkat E6-1, 24 h, concentration response
HDAC3 = HDAC3 (Homo sapiens, UniProt O15379); assay: Multiplexed selectivity western blot in Jurkat cells, HDAC3; assay type: cell-based; conditions: Jurkat E6-1, 24 h, concentration response up to 10 μM
HDAC5 = HDAC5 (Homo sapiens, UniProt Q9UQL6); assay: Multiplexed selectivity western blot in Jurkat cells, HDAC5; assay type: cell-based; conditions: Jurkat E6-1, 24 h, concentration response
HDAC7 = biological target: T2, HDAC7 (Homo sapiens, UniProt Q8WUI4); assay: Multiplexed selectivity western blot in Jurkat cells, HDAC7; assay type: cell-based; conditions: Jurkat E6-1, 24 h, concentration response
T2 sequence (Q8WUI4 1-952): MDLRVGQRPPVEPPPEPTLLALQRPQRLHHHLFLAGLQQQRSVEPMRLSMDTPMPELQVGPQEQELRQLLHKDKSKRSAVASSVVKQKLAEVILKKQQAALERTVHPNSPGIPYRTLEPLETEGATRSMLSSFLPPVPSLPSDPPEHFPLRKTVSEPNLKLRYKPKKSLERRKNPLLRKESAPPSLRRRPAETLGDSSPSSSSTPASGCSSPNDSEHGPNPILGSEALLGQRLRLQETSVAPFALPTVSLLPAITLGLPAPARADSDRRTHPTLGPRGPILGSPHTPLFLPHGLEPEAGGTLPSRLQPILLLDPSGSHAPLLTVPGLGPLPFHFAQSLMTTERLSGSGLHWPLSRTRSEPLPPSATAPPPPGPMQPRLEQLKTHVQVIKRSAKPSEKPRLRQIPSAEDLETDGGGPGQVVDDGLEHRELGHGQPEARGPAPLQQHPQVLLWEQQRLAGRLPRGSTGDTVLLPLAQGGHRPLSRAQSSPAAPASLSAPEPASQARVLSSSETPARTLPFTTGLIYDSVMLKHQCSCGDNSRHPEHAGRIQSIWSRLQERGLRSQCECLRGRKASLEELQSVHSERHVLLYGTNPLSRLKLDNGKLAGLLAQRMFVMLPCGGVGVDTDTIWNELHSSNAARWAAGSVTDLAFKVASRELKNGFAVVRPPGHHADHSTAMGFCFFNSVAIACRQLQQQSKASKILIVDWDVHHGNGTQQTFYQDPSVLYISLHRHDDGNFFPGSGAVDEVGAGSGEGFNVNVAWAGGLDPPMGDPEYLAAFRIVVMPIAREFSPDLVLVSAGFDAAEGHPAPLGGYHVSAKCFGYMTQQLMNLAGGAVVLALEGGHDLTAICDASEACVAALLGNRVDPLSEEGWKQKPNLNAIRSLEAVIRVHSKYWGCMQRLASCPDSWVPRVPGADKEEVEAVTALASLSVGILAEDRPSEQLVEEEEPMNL

HDAC9 = HDAC9 (Homo sapiens, UniProt Q9UKV0); assay: Multiplexed selectivity western blot in Jurkat cells, HDAC9; assay type: cell-based; conditions: Jurkat E6-1, 24 h, concentration response
HDAC4 [2] = biological target: T1, HDAC4; assay type: cell-based; conditions: Jurkat E6-1, 6 h; compound 7 at 1 μM, compound 11 at 100 nM
Target sequence in this assay (P56524 whole entry): as the sequence (P56524 whole entry) above

HDAC4 [3] = biological target: T1, HDAC4; assay: Recombinant HDAC4 enzymatic inhibition assay; conditions: HDAC enzymatic activity assays
Target sequence in this assay (P56524 655-1084 limits assumed): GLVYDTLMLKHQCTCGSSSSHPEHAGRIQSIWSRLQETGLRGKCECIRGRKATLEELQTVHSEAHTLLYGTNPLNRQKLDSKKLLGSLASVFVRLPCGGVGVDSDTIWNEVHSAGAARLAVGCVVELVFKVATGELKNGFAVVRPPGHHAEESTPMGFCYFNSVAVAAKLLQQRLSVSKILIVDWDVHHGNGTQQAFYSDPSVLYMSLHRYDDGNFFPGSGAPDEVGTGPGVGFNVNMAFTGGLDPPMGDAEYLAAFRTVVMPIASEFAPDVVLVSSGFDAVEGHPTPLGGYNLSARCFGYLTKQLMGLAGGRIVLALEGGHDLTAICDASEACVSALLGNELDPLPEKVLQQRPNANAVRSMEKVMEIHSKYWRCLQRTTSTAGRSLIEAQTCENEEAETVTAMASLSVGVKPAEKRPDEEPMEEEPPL

HDAC4 [4] = biological target: HDAC4 (Mus musculus, UniProt Q6NZM9); conditions: R6/2 mice, chronic administration; cited from earlier work
aggregate load = conditions: R6/2 mice, chronic administration, cortex and brain stem; cited from earlier work

HDAC9, sequence (Q9UKV0 whole entry): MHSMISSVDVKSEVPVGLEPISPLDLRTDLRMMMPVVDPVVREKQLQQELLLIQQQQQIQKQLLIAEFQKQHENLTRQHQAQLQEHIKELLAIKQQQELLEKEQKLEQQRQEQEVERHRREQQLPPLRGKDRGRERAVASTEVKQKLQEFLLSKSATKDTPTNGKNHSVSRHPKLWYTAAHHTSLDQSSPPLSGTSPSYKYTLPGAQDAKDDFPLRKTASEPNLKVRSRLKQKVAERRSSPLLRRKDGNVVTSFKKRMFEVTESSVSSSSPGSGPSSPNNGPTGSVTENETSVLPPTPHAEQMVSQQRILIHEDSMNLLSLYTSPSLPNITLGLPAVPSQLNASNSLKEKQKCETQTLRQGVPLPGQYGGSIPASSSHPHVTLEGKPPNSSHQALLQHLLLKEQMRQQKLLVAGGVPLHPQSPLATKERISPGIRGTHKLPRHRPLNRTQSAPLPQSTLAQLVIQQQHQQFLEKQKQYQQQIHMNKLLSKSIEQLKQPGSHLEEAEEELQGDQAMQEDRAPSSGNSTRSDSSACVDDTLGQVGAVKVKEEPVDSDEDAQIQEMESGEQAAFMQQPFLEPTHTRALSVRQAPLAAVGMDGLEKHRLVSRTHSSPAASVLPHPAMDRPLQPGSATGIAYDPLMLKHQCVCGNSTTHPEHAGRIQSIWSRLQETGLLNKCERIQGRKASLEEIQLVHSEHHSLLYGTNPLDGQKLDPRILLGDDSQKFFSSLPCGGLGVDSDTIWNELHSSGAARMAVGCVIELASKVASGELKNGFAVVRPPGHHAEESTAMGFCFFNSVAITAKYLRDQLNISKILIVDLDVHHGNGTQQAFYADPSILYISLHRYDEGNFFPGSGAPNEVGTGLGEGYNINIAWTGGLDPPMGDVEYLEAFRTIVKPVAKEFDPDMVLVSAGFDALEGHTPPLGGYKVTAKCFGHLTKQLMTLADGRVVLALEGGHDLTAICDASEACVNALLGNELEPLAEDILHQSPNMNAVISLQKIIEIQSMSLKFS
HDAC5, sequence (Q9UQL6 whole entry): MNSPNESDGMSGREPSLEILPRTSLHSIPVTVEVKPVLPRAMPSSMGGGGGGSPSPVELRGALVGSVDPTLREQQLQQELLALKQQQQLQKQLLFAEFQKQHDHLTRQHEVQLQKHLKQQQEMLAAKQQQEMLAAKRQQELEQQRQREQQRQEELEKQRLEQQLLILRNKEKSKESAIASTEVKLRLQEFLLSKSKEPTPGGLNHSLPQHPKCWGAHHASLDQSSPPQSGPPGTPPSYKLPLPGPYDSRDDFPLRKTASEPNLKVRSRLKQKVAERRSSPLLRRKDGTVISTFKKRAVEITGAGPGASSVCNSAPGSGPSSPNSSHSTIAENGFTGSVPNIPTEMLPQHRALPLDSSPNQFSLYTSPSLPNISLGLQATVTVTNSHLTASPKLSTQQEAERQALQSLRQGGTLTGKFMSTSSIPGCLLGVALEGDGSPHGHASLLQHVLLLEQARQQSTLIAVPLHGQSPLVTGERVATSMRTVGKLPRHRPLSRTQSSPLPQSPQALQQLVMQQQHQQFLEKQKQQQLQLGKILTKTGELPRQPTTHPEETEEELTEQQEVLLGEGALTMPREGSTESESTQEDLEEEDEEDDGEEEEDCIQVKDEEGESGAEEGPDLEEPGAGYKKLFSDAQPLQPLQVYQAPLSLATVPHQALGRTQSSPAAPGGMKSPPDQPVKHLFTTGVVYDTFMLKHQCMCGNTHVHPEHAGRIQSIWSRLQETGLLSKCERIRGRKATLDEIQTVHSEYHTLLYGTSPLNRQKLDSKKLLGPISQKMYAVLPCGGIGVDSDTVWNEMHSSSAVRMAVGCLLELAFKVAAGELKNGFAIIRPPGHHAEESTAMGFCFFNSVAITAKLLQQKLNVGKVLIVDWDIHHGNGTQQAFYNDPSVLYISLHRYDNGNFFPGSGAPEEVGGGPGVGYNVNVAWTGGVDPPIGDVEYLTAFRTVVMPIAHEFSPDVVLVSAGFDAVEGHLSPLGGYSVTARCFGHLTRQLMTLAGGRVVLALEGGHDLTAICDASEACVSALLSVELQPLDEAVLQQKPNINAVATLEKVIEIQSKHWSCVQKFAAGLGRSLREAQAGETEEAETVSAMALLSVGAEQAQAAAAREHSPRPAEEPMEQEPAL
HDAC3, sequence (O15379 whole entry): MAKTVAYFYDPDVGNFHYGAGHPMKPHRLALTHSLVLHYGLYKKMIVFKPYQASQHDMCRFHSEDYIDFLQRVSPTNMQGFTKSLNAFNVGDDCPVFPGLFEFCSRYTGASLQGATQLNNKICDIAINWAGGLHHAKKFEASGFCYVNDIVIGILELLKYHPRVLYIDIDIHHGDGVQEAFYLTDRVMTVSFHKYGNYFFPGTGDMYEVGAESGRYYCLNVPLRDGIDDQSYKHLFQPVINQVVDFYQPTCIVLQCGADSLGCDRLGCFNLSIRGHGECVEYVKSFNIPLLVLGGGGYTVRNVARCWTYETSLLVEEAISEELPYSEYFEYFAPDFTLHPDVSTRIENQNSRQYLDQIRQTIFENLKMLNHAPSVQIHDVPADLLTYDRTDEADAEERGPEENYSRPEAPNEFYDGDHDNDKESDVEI
HDAC1, sequence (Q13547 whole entry): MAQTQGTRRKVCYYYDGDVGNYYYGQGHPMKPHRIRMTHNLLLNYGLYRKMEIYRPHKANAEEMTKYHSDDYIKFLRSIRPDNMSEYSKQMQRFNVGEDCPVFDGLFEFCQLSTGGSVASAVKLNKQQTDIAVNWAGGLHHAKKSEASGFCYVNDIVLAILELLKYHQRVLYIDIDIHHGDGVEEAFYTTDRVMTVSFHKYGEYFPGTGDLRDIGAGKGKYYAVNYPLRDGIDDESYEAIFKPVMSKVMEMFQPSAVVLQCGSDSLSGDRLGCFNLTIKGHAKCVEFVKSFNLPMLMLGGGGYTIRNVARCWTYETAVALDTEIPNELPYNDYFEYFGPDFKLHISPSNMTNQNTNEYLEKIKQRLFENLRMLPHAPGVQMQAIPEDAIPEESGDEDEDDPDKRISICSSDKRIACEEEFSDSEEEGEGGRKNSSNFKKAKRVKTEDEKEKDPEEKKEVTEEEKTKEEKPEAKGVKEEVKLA

| Structure (SMILES) | HDAC4 degradation at 10 μM by immunoblot (HDAC4 [1]) | pIC50 (class I HDAC) | hook effect (HDAC4 [1]) | degradation of HDAC1 by western blot (HDAC1) | degradation of HDAC3 by western blot (HDAC3) | degradation of HDAC5 by western blot (HDAC5) | degradation of HDAC7 by western blot (HDAC7) | degradation of HDAC9 by western blot (HDAC9) | HDAC4 degradation in the presence of 1 μM proteasome inhibitors MG132 or carfilzomib (HDAC4 [2]) | higher inhibition of HDAC5, HDAC7, and HDAC9 compared to HDAC4 (HDAC4 [3]) | level of HDAC4 protein in the cortex and brain stem (HDAC4 [4]) | aggregate load in the same brain regions (aggregate load) |
| --- | --- | --- | --- | --- | --- | --- | --- | --- | --- | --- | --- | --- |
| Cc1ncsc1-c1ccc(CNC(=O)[C@@H]2C[C@H](O)CN2C(=O)[C@@H](NC(=O)COCCOCCOCCOCCOCC(F)(F)c2cnc(-c3ccc(C(C(=O)NO)c4ccccc4F)cc3)nc2)C(C)(C)C)cc1 (stereo partly drawn) [Compound 8, (2S,4S)-1-((2S)-2-(tert-Butyl)-20,20-difluoro-20-(2-(4-(1-(2-fluorophenyl)-2-(hydroxyamino)-2-oxoethyl)phenyl)pyrimidin-5-yl)-4-oxo-6,9,12,15,18-pentaoxa-3-azaicosanoyl)-4-hydroxy-N-(4-(4-methylthiazol-5-yl)benzyl)pyrrolidine-2-carboxamide] | did not induce HDAC4 degradation | < 5.30 |  |  |  |  |  |  |  |  |  |  |
| CCCN(CCCCOCCOCCOCCOCCOCC(=O)N[C@@H](C(=O)N1C[C@@H](O)C[C@@H]1C(=O)NCc1ccc(-c2scnc2C)cc1)C(C)(C)C)C[C@@H](C)NC(=O)c1ccc(-c2noc(C(F)(F)F)n2)cc1 [Compound 12, (2R,4S)-1-((3R,26R)-26-(tert-Butyl)-3-methyl-1,24-dioxo-5-propyl-1-(4-(5-trifluoromethyl-1,2,4-oxadiazol-3-yl)phenyl)-10,13,16,19,22-pentaoxa-2,5,25-triazaheptacosan-27-oyl)-4-hydroxy-N-(4-(4-methylthiazol-5-yl)benzyl)pyrrolidine-2-carboxamide] | did not induce HDAC4 degradation | < 5.30 |  |  |  |  |  |  |  |  |  |  |
| CCCN(CCCCOCCOCCOCCOCCOCC(=O)N[C@H](C(=O)N1C[C@H](O)C[C@H]1C(=O)NCc1ccc(-c2scnc2C)cc1)C(C)(C)C)C[C@@H](C)NC(=O)c1ccc(-c2noc(C(F)(F)F)n2)cc1 [Compound 11, (2S,4R)-1-((3R,26S)-26-(tert-Butyl)-3-methyl-1,24-dioxo-5-propyl-1-(4-(5-trifluoromethyl-1,2,4-oxadiazol-3-yl)phenyl)-10,13,16,19,22-pentaoxa-2,5,25-triazaheptacosan-27-oyl)-4-hydroxy-N-(4-(4-methylthiazol-5-yl)benzyl)pyrrolidine-2-carboxamide] |  | < 5.30 | hook effect was not observed | neither compound demonstrated degradation | showed HDAC3 degradation at the highest dose of 10 μM | neither compound demonstrated degradation | neither compound demonstrated degradation | neither compound demonstrated degradation | same effect was observed |  |  |  |
| Cc1ncsc1-c1ccc(CNC(=O)[C@@H]2C[C@@H](O)CN2C(=O)[C@@H](NC(=O)COCCOCCOCCOCCOCC(F)(F)c2cnc(-c3ccc(C(C(=O)NO)c4ccccc4F)cc3)nc2)C(C)(C)C)cc1 (stereo partly drawn) [Compound 7, (2S,4R)-1-((2S)-2-(tert-Butyl)-20,20-difluoro-20-(2-(4-(1-(2-fluorophenyl)-2-(hydroxyamino)-2-oxoethyl)phenyl)pyrimidin-5-yl)-4-oxo-6,9,12,15,18-pentaoxa-3-azaicosan-1-oyl)-4-hydroxy-N-(4-(4-methylthiazol-5-yl)benzyl)pyrrolidine-2-carboxamide] |  | < 5.30 | hook effect was observed | neither compound demonstrated degradation | No concentration-dependent reduction in immunoreactivity | neither compound demonstrated degradation | neither compound demonstrated degradation | neither compound demonstrated degradation | HDAC4 degradation was prevented | 3- to 4 fold |  |  |
| O=C(CCCCCCC(=O)Nc1ccccc1)NO [SAHA, suberoylanilide hydroxamic acid] |  |  |  |  |  |  |  |  |  |  | reduction in the level of HDAC4 protein | decrease in aggregate load |
